Measured values: PubChem BioAssay (NCI)
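GI50 is the concentration that inhibits growth by half. At the TGI there is no net growth.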

Tests used:
Test in all cases: DTP human tumour cell line panel, 384-well format
[1] = tested on: DU-145 prostate
[2] = tested on: HCC-2998 colon
[3] = tested on: MALME-3M melanoma
[4] = tested on: HS 578T breast
[5] = tested on: NCI-H522 lung
[6] = tested on: HCT-116 colon
[7] = tested on: M14 melanoma
[8] = tested on: TK-10 renal
[9] = tested on: ACHN renal
[10] = tested on: HT29 colon
[11] = tested on: A498 renal
[12] = tested on: RXF 393 renal
[13] = tested on: RPMI-8226 leukemia
[14] = tested on: NCI-H322M lung
[15] = tested on: COLO 205 colon
[16] = tested on: HL-60(TB) leukemia
[17] = tested on: SR leukemia
[18] = tested on: MOLT-4 leukemia
[19] = tested on: SNB-19 CNS
[20] = tested on: SK-OV-3 ovarian
[21] = tested on: OVCAR-3 ovarian
[22] = tested on: NCI-H226 lung
[23] = tested on: IGROV1 ovarian
[24] = tested on: SNB-75 CNS
[25] = tested on: EKVX NSCLC
[26] = tested on: NCI-H23 lung
[27] = tested on: SN12C renal
[28] = tested on: HOP-62 NSCLC
[29] = tested on: SF-295 CNS
[30] = tested on: NCI/ADR-RES ovarian
[31] = tested on: MDA-MB-231 breast
[32] = tested on: SK-MEL-28 melanoma
[33] = tested on: LOX IMVI melanoma
[34] = tested on: HOP-92 NSCLC
[35] = tested on: U251 glioblastoma
[36] = tested on: OVCAR-8 ovarian
[37] = tested on: OVCAR-5 ovarian
[38] = tested on: BT-549 breast
[39] = tested on: A549 NSCLC
[40] = tested on: SF-539 CNS
[41] = tested on: SK-MEL-5 melanoma
[42] = tested on: CAKI-1 renal
[43] = tested on: T-47D breast
[44] = tested on: MDA-MB-435 melanoma
[45] = tested on: UACC-62 melanoma
[46] = tested on: UACC-257 melanoma
[47] = tested on: OVCAR-4 ovarian
[48] = tested on: MDA-MB-468 breast
[49] = tested on: PC-3 prostate
[50] = tested on: NCI-H460 NSCLC
[51] = tested on: HCT-15 colon
[52] = tested on: MCF7 breast
[53] = tested on: SF-268 CNS
[54] = tested on: KM12 colon

CNC(=O)c1cc(COc2nnc(Nc3ccc(Cl)cc3)c3ccoc23)ccn1
GI50 [1]: 12.4 µM
TGI [1]: 25.2 µM
GI50 [2]: 11.1 µM
TGI [2]: 30 µM
GI50 [3]: 5.69 µM
TGI [3]: 18 µM
GI50 [4]: 2.73 µM
TGI [4]: 8.17 µM
GI50 [5]: 5.23 µM
TGI [5]: 17 µM
GI50 [6]: 4.08 µM
TGI [6]: 14.9 µM
GI50 [7]: 19.3 µM
TGI [7]: 38.6 µM
GI50 [8]: 10.3 µM
TGI [8]: 22.3 µM
GI50 [9]: 11.1 µM
TGI [9]: 25.5 µM
GI50 [10]: 2.4 µM
TGI [10]: 5.67 µM
GI50 [11]: 9.38 µM
TGI [11]: 21.3 µM
GI50 [12]: 2.84 µM
TGI [12]: 8.62 µM
GI50 [13]: 14.1 µM
TGI [13]: 39.9 µM
GI50 [14]: 11.9 µM
TGI [14]: 25.1 µM
GI50 [15]: 20 µM
TGI [15]: 37.2 µM
GI50 [16]: > 100 µM
TGI [16]: > 100 µM
GI50 [17]: 2.5 µM
TGI [17]: 4.87 µM
GI50 [18]: 34.8 µM
TGI [18]: > 100 µM
GI50 [19]: 13.1 µM
TGI [19]: 26 µM
GI50 [20]: 2.8 µM
TGI [20]: 9.01 µM
GI50 [21]: 14.3 µM
TGI [21]: 27.9 µM
GI50 [22]: 15.2 µM
TGI [22]: 29.5 µM
GI50 [23]: 12.2 µM
TGI [23]: 26.7 µM
GI50 [24]: 3.09 µM
TGI [24]: 11 µM
GI50 [25]: 13.6 µM
TGI [25]: 26.8 µM
GI50 [26]: 2.45 µM
TGI [26]: 5.19 µM
GI50 [27]: 12.9 µM
TGI [27]: 31.7 µM
GI50 [28]: 4.89 µM
TGI [28]: 15.5 µM
GI50 [29]: 2.4 µM
TGI [29]: 5.78 µM
GI50 [30]: 8.44 µM
TGI [30]: 20.8 µM
GI50 [31]: 4.69 µM
TGI [31]: 18.3 µM
GI50 [32]: 5.17 µM
TGI [32]: 17.6 µM
GI50 [33]: 18.6 µM
TGI [33]: 43.8 µM
GI50 [34]: 4.23 µM
TGI [34]: 14.2 µM
GI50 [35]: 10.2 µM
TGI [35]: 21.9 µM
GI50 [36]: 1.96 µM
TGI [36]: 3.68 µM
GI50 [37]: 21.9 µM
TGI [37]: 40.2 µM
GI50 [38]: 9.44 µM
TGI [38]: 21.9 µM
GI50 [39]: 5.43 µM
TGI [39]: 19.1 µM
GI50 [40]: 1.49 µM
TGI [40]: 3.07 µM
GI50 [41]: 8.37 µM
TGI [41]: 20.7 µM
GI50 [42]: 3.38 µM
TGI [42]: 11.7 µM
GI50 [43]: 15.4 µM
TGI [43]: 46.9 µM
GI50 [44]: 19.1 µM
TGI [44]: 37.5 µM
GI50 [45]: 3.51 µM
TGI [45]: 12.2 µM
GI50 [46]: 7.95 µM
TGI [46]: 20.8 µM
GI50 [47]: 5.31 µM
TGI [47]: 16.6 µM
GI50 [48]: 2.29 µM
TGI [48]: 4.86 µM
GI50 [49]: 11.3 µM
TGI [49]: 25.5 µM
GI50 [50]: 8.81 µM
TGI [50]: 21 µM
GI50 [51]: 11.8 µM
TGI [51]: 27.3 µM
GI50 [52]: 4.71 µM
TGI [52]: 17.6 µM
GI50 [53]: 3.03 µM
TGI [53]: 8.04 µM
GI50 [54]: 3.29 µM
TGI [54]: 8.84 µM
